Test results taken from PubChem BioAssay AID1159565 (GlaxoSmithKline (GSK), 2015).
Active and inactive are the calls of the source. How the calls were made is not given here.

System: T. cruzi-infected H9C2 cardiomyocytes, high-content imaging
Test: anti-T. cruzi activity in infected cardiomyocytes – imaging, H9C2 host cardiomyocytes, host toxicity (AID 1159565);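 further: infected cells incubated 72 h after plating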
[1] = measured here: H9C2 host cell toxicity
[2] = measured here: amastigotes per cell

| Compound | IC50 | IC50 [1] [nM] | IC50 [2] [nM] |
| --- | --- | --- | --- |
| O=C(Nc1ccc(Br)cn1)c1ccc(Cn2cnc([N+](=O)[O-])n2)cc1 | 130 nM | > 50000 | 79 |
| CC(=O)Nc1nc(-c2cc(C)ccc2C)c(C)s1 | 200 nM | > 50000 | 160 |
| CCCc1cc(N)nc(-c2cc(CCC)cc(N)n2)c1 | 630 nM | 200 | 500 |
| O=[N+]([O-])c1cccc(Nc2cncc(-c3ccccc3CO)c2)c1 | 400 nM | > 50000 | 250 |
| COc1ccc(C(=O)N2CCC(Nc3cccnc3)C2)c(OC)n1 (stereo unspecified) | 790 nM | > 50000 | 790 |
| CC(Cn1ccnc1)NC(=O)COc1ccc(Cl)c(Cl)c1 (stereo unspecified) | 500 nM | > 50000 | 400 |
| COc1ccccc1-c1c(C)[nH]c2nc(N)nc(C)c12 | 250 nM | > 50000 | 130 |
| CN1CCCN(C(=O)c2ccc(N3CCCC3)cc2Cl)CC1 | 1000 nM | > 50000 | 630 |
| Cc1ccc(-c2csc(NC(=O)C=Cc3ccc(S(=O)(=O)N4CCOCC4)cc3)n2)o1 | 10000 nM | 32000 | 10000 |
| COc1ccc(Nc2nc(-c3ccccn3)cc(N3CCCC(O)C3)n2)cc1 (stereo unspecified) | 5000 nM | 4000 | 7900 |
| CC(C)c1sc(Cl)nc1C(=O)NCCc1nc(C(=O)Nc2ccc3c(c2)OCO3)cs1 | 1000 nM | > 50000 | 630 |
| O=c1ccn(-c2ccc([N+](=O)[O-])cc2Cl)c2ccc(F)cc12 | 4000 nM | > 50000 | 1300 |
| N#Cc1cc(-c2ccnc(Nc3cccc(CN4CCOCC4)c3)n2)ccc1NCCN | 32000 nM | 7900 | 16000 |
| COc1ccc2ncc(=O)n(CCN3CCOC(CNCc4ccc(C(F)(F)F)cc4F)C3)c2n1 (stereo unspecified) | 1600 nM | > 50000 | 630 |
| Cc1cc(NC(=O)c2ccc([N+](=O)[O-])s2)ccc1Br | 400 nM | 2500 | 250 |
| CC(c1ccc2c(c1)CCCC2)N(C)c1ncc2c(N)nc(N)nc2n1 (stereo unspecified) | 32 nM | 10000 | 10 |
| O=C(CN1CCC2(O)CCCCC2C1c1ccc2c(c1)OCO2)Nc1ccc(Cl)cc1Cl (stereo unspecified) | 5000 nM | > 50000 | 3200 |
| CC(=O)Nc1ccc(Nc2nccc(-c3cnn4ncccc34)n2)cc1C(F)(F)F | 500 nM | 63 | 200 |
| COc1ccc(CNc2nsc3ccccc23)cc1OC | 25000 nM | > 50000 | 20000 |
| NCc1csc(Nc2cc(Oc3ccccc3)ncn2)n1 | 25000 nM | > 50000 | 32000 |
| COc1ccc(OC)c2c(=O)c(Cc3ccccc3)c(C)[nH]c12 | 500 nM | > 50000 | 130 |
| COc1ccc2c(Cl)c(C(=O)N3CCC3)sc2c1Cl | 2500 nM | > 50000 | 790 |
| CCOc1ccc(NC(=O)C=Cc2ccc(CC)o2)cc1 | 25000 nM | > 50000 | 16000 |
| O=C(CN(Cc1ccccn1)Cc1ccccn1)NCc1ccc(-c2csnn2)cc1 | 63000 nM | > 79000 | 7900 |

| Compound | IC50 | IC50 [1] [nM] | IC50 [2] [nM] |
| --- | --- | --- | --- |
| COc1ccc(C)cc1-c1csc(NC(=O)C(C)n2ccnc2)n1 (stereo unspecified) | 100 nM | > 50000 | 100 |
| O=C(Cn1cnc([N+](=O)[O-])n1)Nc1ccc(Cl)cc1C(=O)c1ccccc1 | 1300 nM | > 50000 | 320 |
| CC(=O)Nc1cccc(Nc2ncnc3nc[nH]c23)c1 | 40000 nM | > 50000 | 25000 |
| O=c1[nH]c(C=Cc2cccc(OCCOc3ccccc3)c2)nc(O)c1[N+](=O)[O-] | 200 nM | > 50000 | 160 |
| CCOC(=O)c1cn[nH]c1S(=O)(=O)N1CCC1c1ccccc1 (stereo unspecified) | > 50000 nM (inactive) | > 50000 | > 50000 |
| CN(Cc1nc2ccc(C(=O)NCC3CCCCC3)cc2[nH]1)C1CCCc2cccnc21 (stereo unspecified) | 630 nM | 5000 | 320 |
| Cc1nn(-c2nc3ccccc3s2)c2c1C(c1ccc(OCC(N)=O)cc1)SCC(=O)N2 (stereo unspecified) | > 50000 nM (inactive) | > 50000 | > 50000 |
| CN(C(=O)Nc1ccc2c(c1)CCN(C1CCC1)CC2)c1ccc(C#N)cc1 | 4000 nM | > 50000 | 2000 |
| COc1ccc2ncc(Cl)c(CCN3CC[C@@H](NCc4cc5c(cn4)OCS5)[C@H](O)C3)c2n1 | 79 nM | 25000 | 63 |
| COc1ccc(NC(=O)c2ccc(NC(=O)CN(c3ccccc3C)S(C)(=O)=O)cc2)cc1 | 25000 nM | 25000 | 20000 |
| Cn1nccc1-c1cc(OC(CN)c2ccccc2)cnc1-c1ccco1 (stereo unspecified) | 100 nM | > 50000 | 100 |
| Cc1cc2cncn2c(C2CCCCN2C(=O)c2cccs2)n1 (stereo unspecified) | 63 nM | > 50000 | 63 |
| COc1ccc(-c2nc3ccncc3c(=O)n2CCOc2ccccc2)cc1 | 400 nM | > 50000 | 400 |
| Cc1nn(-c2ccccc2)nc1CNC(=O)CN(Cc1ccccn1)Cc1ccccn1 | 10000 nM | 63000 | 3200 |
| CC(C)c1cc(C(=O)N2CCCC(c3cc4ncccc4[nH]3)C2)on1 (stereo unspecified) | 3200 nM | > 50000 | 1000 |
| CCc1cccc(-n2nc(OCC(=O)NC3CCCC3)c3cccnc32)c1 | > 50000 nM (inactive) | > 50000 | > 50000 |
| CCc1ccccc1[C@@H](C)NC(=O)c1cnc2c(cnn2CC)c1NC1CCN(C(N)=O)CC1 | > 50000 nM (inactive) | > 50000 | 40000 |
| COCCn1c(-c2ccccc2)cnc1NCc1ccccc1OC | 16000 nM | > 50000 | 6300 |
| CNC(=O)Oc1ccc(C(=O)NCc2ccccc2)cc1OC(=O)NC | 40000 nM | > 50000 | 40000 |
| CC(=O)Nc1ccc(CN2CCC(N3CC(c4ccccc4)(c4ccccc4)OCC3=O)CC2)cc1 | 32000 nM | > 50000 | 20000 |
| CN1CCC(N(C)c2nccc(N3CCN(C(=O)c4cccc(-c5cccnc5)c4)CC3)n2)CC1 | 1300 nM | 7900 | 1000 |
| N#Cc1ccc(S(=O)(=O)N2CCN(Cc3cccc(-c4ccncc4)c3)CC2)cc1 | 250 nM | 25000 | 200 |
| COc1ccc(C(=O)Nc2c(C)nn(COc3cccc(C(F)(F)F)c3)c2C)cc1 | 40000 nM | > 50000 | 25000 |
| Cc1cnc(Nc2cc(Cc3ccccc3)nc(NC3CCC(O)CC3)n2)s1 (stereo unspecified) | 130 nM | 32 | 50 |

| Compound | IC50 | IC50 [1] [nM] | IC50 [2] [nM] |
| --- | --- | --- | --- |
| O=C(c1ccc(OCCCc2cnc[nH]2)cc1)C1CC1 | 1600 nM | > 50000 | 1300 |
| C[C@@H](Oc1cc(-n2cnc3ccc(O[C@H]4CCNC4)cc32)sc1C(N)=O)c1ccccc1Cl | 13000 nM | 630 | 6300 |
| CCCCn1nnnc1CSc1nc(C)cc(C)c1C#N | 200 nM | > 50000 | 100 |
| CCOc1cnn(C)c(=O)c1Nc1ccc(C(=O)NCc2ccc(F)cc2)cc1 | 100 nM | > 50000 | 130 |
| CC(=O)NCCNc1cc(-c2ccnc(Nc3cccc(Cl)c3)n2)ccn1 | 1600 nM | 400 | 160 |
| CCN(CC)c1nc(N(C)C)nc2c1CN(Cc1ccccc1)CC2 | 20000 nM | > 50000 | 4000 |
| O=[N+]([O-])c1ccc(-c2nnn(-c3cccnc3)n2)o1 | > 50000 nM (inactive) | 6300 | 63 |
| COc1ccc(CNc2cc(C3CC3)nc(-c3nccn3C)n2)cc1 | 790 nM | 1000 | 630 |
| CC(C)Nc1nc(Cl)nc2ccccc12 | 10000 nM | 7900 | 4000 |
| CN(CCOc1ccc(Cl)cc1)Cc1nc(N)nc(N(C)C)n1 | 10000 nM | > 50000 | 7900 |
| O=C(Nc1ccccc1)Nc1nc(-c2ccccn2)cs1 | 1000 nM | 1000 | 630 |
| Cc1ccc2onc(Nc3ccnc(Nc4cccc(S(C)(=O)=O)c4)n3)c2c1 | 630 nM | 5000 | 400 |
| COc1ccnc2[nH]cc(-c3cc(C(=O)N[C@H](CO)c4ccccc4)co3)c12 | 20000 nM | 320 | 7900 |
| COc1ccc([N+](=O)[O-])cc1NC(=O)Nc1cccc(Cl)c1 | 10000 nM | > 50000 | 400 |
| Clc1ccc(OCCN2CCCCC2c2cccnc2)c(Cl)c1 (stereo unspecified) | 200 nM | > 50000 | 160 |
| Cc1nc(-c2ccncc2)ncc1C(C)NC(=O)c1ccc(Cl)s1 (stereo unspecified) | 32000 nM | > 50000 | 20000 |
| COc1ccc(NS(=O)(=O)c2cc(NC(=O)Cc3ccc(C)cc3)ccc2N2CCOCC2)cc1 | 5000 nM | > 50000 | 2500 |
| c1ccc(Nc2nc3ccccc3[nH]2)nc1 | 25000 nM | 10000 | 10000 |
| CC(C(=O)Nc1ccccc1F)N(C)CC(=O)Nc1cccc2ccccc12 (stereo unspecified) | 500 nM | > 50000 | 320 |
| CC(C)N(C(=O)CN1C(=O)C(N)C(=O)N(c2ccccc2)c2ccccc21)c1ccccc1 (stereo unspecified) | 320 nM | > 50000 | 400 |
| c1cc(-c2ncc(-c3ccn[nH]3)s2)ccn1 | 250 nM | > 50000 | 250 |
| Cc1[nH]n2c(=O)c3c(nc2c1-c1ccc(Br)cc1)CCCC3 | 1600 nM | > 50000 | 790 |
| CC(=O)NC1(c2ccccc2)CCN(CC(=O)Nc2ccccc2-c2ccccc2)CC1 | 7900 nM | > 50000 | 1600 |
| Cc1cc(NC(=O)CC2CCCCC2)n(-c2nc3c(c(=O)[nH]2)CCC3)n1 | 320 nM | 4000 | 130 |
